Assay results as given in patent publication US20140249095A1, “Method for Inhibiting Spinocerebellar Ataxia” (National Normal University, priority 2013, published 2014).

Legend:
in vitro [1] = conditions: human
Procedure: (§2) Cells were cultivated at 37° C. incubator containing 5% CO2 and cell proliferation was measured based upon the reduction of the tetrazolium salt, 3,[4,5-dimethylthiazol-2-yl]-2,5-diphenyl-tetrazolium bromide (MTT). Cells were plated into 48-well (5×10^4/well) dishes, grown for 20 hours and treated with different concentrations of the P. lactiflora extract (5˜30 mg/mL) or pure compound (100 nM˜1 mM). After one day, 20 μL MTT (5 mg/mL in PBS, Sigma) was added to cells and incubated for 2 hours. The absorbance of the purple formazan dye was measured at 570 nm by a Bio-Tek μQuant Universal Microplate Spectrophotometer.

[2] = system: ATXN3/Q75 aggregation in 293 ATXN3/Q75-GFP cells; experiment: ATXN3/Q75 aggregation assay on 293 cell model; format: cell-based, human; conditions: for ATXN3/Q75 aggregation as compared to untreated cells: 293 ATXN3/Q75-GFP cells, doxycycline and oxaliplatin 6 days; for IC50 cytotoxicity/effective dose ratio: effective dose = reduced the ATXN3/Q75 aggregation to 85% or lower
Procedure: (§1) The cloned pcDNA5/FRT/TO-ATXN3/Q14 and Q75 plasmids were used to generate the isogenic ATXN3/Q14˜75 cell lines by targeting insertion into Flp-In™-293 cells. These cell lines were grown in medium containing 5 μg/mL blasticidin and 100 μg/mL hygromycin (InvivoGen). In addition, human SH-SYSY-derived Flp-In host cell line was constructed as described, and the SH-SYSY host cells were used to generate isogenic ATXN3/Q14˜75 lines and maintained as described above. ATXN3/Q75 Aggregation Assay
Then, doxycycline (10 μg/mL, BD) was added to the medium in each well to induce ATXN3/Q75-GFP expression for 6 days.
In the present example, the influences of the P. lactiflora extract and paeoniflorin in the ATXN3/Q75-GFP cells were respectively examined.

in vitro [3] = conditions: human; remark: listed apart in the source
Procedure: as §2

[4] = system: ATXN3/Q75 aggregation in SH-SY5Y ATXN3/Q75-GFP cells; experiment: ATXN3/Q75 aggregation assay on SH-SY5Y cell model; format: cell-based, human; conditions: paeoniflorin 100 nM; retinoic acid differentiated SH-SY5Y ATXN3/Q75-GFP cells, 6 days
Procedure: as §1

Procedure for HEK-293 cells: as §2
Procedure for SH-SY5Y cells: as §2

Structure (SMILES) | IC50 at 24 h (in vitro [1]) [µM] | ATXN3/Q75 aggregation as compared to untreated cells ([2]; at 100 nM) [%] | IC50 cytotoxicity/effective dose ratio [2] | IC50 at 24 h (in vitro [3]) [µM] | aggregation reduction in ATXN3/Q75 expressed neuronal cells [4] [%] | ATXN3/Q75 aggregation as compared to untreated cells ([2]; at 5 μM) [%] | IC50 (SH-SY5Y cells) [µM] | IC50 (HEK-293 cells) [µM]
C[C@@]12C[C@@]3(O)O[C@@H](O1)[C@]1(COC(=O)c4ccccc4)[C@H]3C[C@@]12O[C@@H]1O[C@H](CO)[C@@H](O)[C@H](O)[C@H]1O [paeoniflorin] | > 1000 | 73 | > 10000 | > 1000 | 21 |  |  | 
C[C@]12C[C@@H](O)[C@@H]3C[C@@]1(O[C@@H]1O[C@H](CO)[C@@H](O)[C@H](O)[C@H]1O)[C@@]3(COC(=O)c1ccccc1)C(=O)O2 [albiflorin] |  |  | > 200 |  |  | 78 | > 1000 | > 1000
O=C(CCCCCCC(=O)Nc1ccccc1)NO [SAHA, suberoylanilide hydroxamic acid, reference compound] |  | 85 |  |  |  |  |  | 
